Data reported in patent US20120077957A1, “Lactam-Bridged Melanocortin Receptor-Specific Peptides” (PALATIN TECHNOLOGIES, INC., priority 2009, published 2012).
Where two headings read alike, the source gives them in different places. Bridge positions count the residues as written; N and C are the ends. Square brackets hold non-standard residues; d marks the D form. Peptide text beside a SMILES is read from it. * marks the point of attachment. Orn = NCCC[C@H](N)C(=O)O; Bn = c1ccc(C*)cc1

Experiments:
human MC4-R [1] = biological target: T1, human MC4-R (Homo sapiens, UniProt P32245); test: Competitive inhibition binding assay with [I125]-NDP-α-MSH or Eu-NDP-α-MSH, membranes of HEK-293 cells expressing recombinant hMC4-R
T1 construct: expressed in transfected cells; host or cells: HEK293 T-REx (tetracycline-regulated, Invitrogen); cell line from Palatin Technologies with license from the University of Michigan
Method: A competitive inhibition binding assay was performed using membrane homogenates prepared from HEK-293 cells that express recombinant hMC4-R, hMC3-R, or hMC5-R, and from B-16 mouse melanoma cells (containing endogenous MC1-R). In some instances, HEK-293 cells that express recombinant hMC1-R were employed. In the examples that follow, all MC3-R, MC4-R and MC5-R values are for human recombinant receptors. […] After incubation for 60 minutes at 37° C., the assay mixture was filtered and the membranes washed three times with ice-cold buffer. Filters were dried and counted in a gamma counter for bound radioactivity. […] Maximal specific binding (100%) was defined as the difference in radioactivity (cpm) bound to cell membranes in the absence and presence of 1 μM NDP-α-MSH. […] Ki values for test peptides of the present invention were determined using Graph-Pad Prism® curve-fitting software.
Alternatively, a competitive inhibition binding assay was performed employing Eu-NDP-α-MSH (PerkinElmer Life Sciences catalog No. AD0225) with determination by time-resolved fluorometry (TRF) of the lanthanide chelate. […] After incubation for 90 minutes at 37° C., the reaction was stopped by filtration over AcroWell 96-well filter plates (Pall Life Sciences). The filter plates were washed 4 times with 200 μL of ice-cold phosphate-buffered saline. DELFIA Enhancement solution (PerkinElmer Life Sciences) was added to each well. […] Each assay was conducted in duplicate and mean values were utilized. Ki values were determined by curve-fitting with Graph-Pad Prism® software using a one-site fixed-slope competition binding model.

human MC4-R [2] = biological target: T1, human MC4-R; test: cAMP functional assay in HEK-293 T-REx cells expressing human MC4-R, induced with doxycycline 0.1 ng/mL (low density); type: cell-based; conditions: for Emax: HEK293-T-REx, maximal cAMP stimulation, NDP-α-MSH = 100%, read-out: Emax
From the text: A HEK293 cell line transfected with human MC4-R (from Palatin Technologies, US, with license from the University of Michigan) was used. The human MC4-R was introduced to HEK293 by using the T-REx™ System, Invitrogen. The T-REx™ System employs a tetracycline-regulated mammalian expression system that uses regulatory elements from the E. coli Tn10-encoded tetracycline (Tet) resistance operon. By use of the T-REx™ System, expression of the gene of interest, the human MC4-R gene, is repressed in the absence of tetracycline or doxycycline and induced in the presence of tetracycline or doxycycline (see T-REx™ System Manual, published by Invitrogen).
Cells were then counted and volume was adjusted to 5×10^4 cells per 200 μL.
The cells were then dispensed into 96-well plates (BD 353916) in 198 μL (about 5×10^4) cells/well and incubated for 10 minutes at 37° C. The compound to be tested was diluted with DMSO to a final concentration of 1 mM. Serial dilution was prepared in polypropylene removable 12-well library tube strips (VWR cat #83009-682). 120 μL of the 1 mM compound stock was pipetted in the second column on the plate.
2 μL of the standard, [Nle^4, D-Phe^7]alpha-Melanocyte Stimulating Hormone (NDP-α-MSH), or compound was added to the 96-well plate using the Janus robotic system. All assay samples were run in duplicate (i.e. each sample was in two low dox and two high dox plates, respectively). The plates were gently shaken and incubated for 15 minutes at 37° C. The reaction was stopped by adding 15 μL of lysis buffer per well and the plates were shakened for 30 minutes at room temperature.
Agonist stimulation of the MC4-R activates adenylate cyclase, which is an enzyme that catalyses the formation 3′,5′-cyclic adenosine monophosphate (cAMP) from adenosine triphosphate (ATP). […] Fluoresence ratios were then calculated as described in the CisBio HTRF kit, with GraphPad Prism software used to plot the change in fluorescence percent values versus cAMP concentration using the variable slope dose response curve and, based on calculated cAMP concentrations, to determine EC50 and Emax values. […]

[3] = doxycycline 0.1 ng/mL, averages of all comparable assays
[4] = human MC4-R cAMP assay, doxycycline 0.1 ng/mL, averages of all comparable assays, read-out: Ec50
[5] = human MC4-R, averages of all comparable assays, read-out: Ki

T1 sequence (P32245 whole entry): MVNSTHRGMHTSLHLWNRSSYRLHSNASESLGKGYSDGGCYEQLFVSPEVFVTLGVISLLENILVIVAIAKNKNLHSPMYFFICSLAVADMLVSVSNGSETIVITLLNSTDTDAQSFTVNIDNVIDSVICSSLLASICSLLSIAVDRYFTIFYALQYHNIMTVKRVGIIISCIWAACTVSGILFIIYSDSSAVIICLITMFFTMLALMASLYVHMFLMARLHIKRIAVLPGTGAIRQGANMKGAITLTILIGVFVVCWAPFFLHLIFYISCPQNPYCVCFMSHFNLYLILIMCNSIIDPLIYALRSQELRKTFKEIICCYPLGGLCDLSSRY

Emax (human MC4-R [2]; [3]) [%]	EC50 (human MC4-R [2]; [4]) [nM]	Ki (human MC4-R [1]; [5]) [nM]	SMILES	Ki (human MC4-R [1]) [nM]	EC50 (human MC4-R [2]) [nM]
88	0.6	12	CC(=O)N[C@@H](CCCNC(=N)N)C(=O)N[C@H]1CCCNC(=O)CC[C@@H](C(=O)O)NC(=O)[C@H](Cc2c[nH]c3ccccc23)NC(=O)[C@H](CCCNC(=N)N)NC(=O)[C@@H](Cc2ccccc2)NC(=O)[C@H](Cc2c[nH]cn2)NC1=O [No. 37, Ac-Arg-cyclo(Orn-His-D-Phe-Arg-Trp-Glu)-OH] (Ac-R[Orn]H[dF]RWE-OH; lactam 2-7)	–	–
97	2	1	CCCC[C@H](NC(C)=O)C(=O)N[C@H]1CCCNC(=O)CC[C@@H](C(=O)O)NC(=O)[C@H](Cc2c[nH]c3ccccc23)NC(=O)[C@H](CCCNC(=N)N)NC(=O)[C@@H](Cc2ccccc2)NC(=O)[C@H](Cc2c[nH]cn2)NC1=O [No. 35, Ac-Nle-cyclo(Orn-His-D-Phe-Arg-Trp-Glu)-OH]	–	–
103	0.1	–	CC(=O)N[C@@H](CCCNC(=N)N)C(=O)N[C@H]1CCCNC(=O)CC[C@@H](C(N)=O)NC(=O)[C@H](Cc2c[nH]c3ccccc23)NC(=O)[C@H](CCCNC(=N)N)NC(=O)[C@@H](Cc2ccccc2)NC(=O)[C@H](CCN)NC1=O [No. 43, Ac-Arg-cyclo(Orn-Dab-D-Phe-Arg-Trp-Glu)-NH2]	3	–
50	3	5	CC(=O)N[C@@H](CCCNC(=N)N)C(=O)N[C@H]1CCCNC(=O)CC[C@@H](C(=O)O)NC(=O)[C@H](Cc2c[nH]c3ccccc23)NC(=O)[C@H](CCCNC(=N)N)NC(=O)[C@@H](Cc2ccccc2)NC(=O)[C@H](COCc2ccccc2)NC1=O [No. 48, Ac-Arg-cyclo(Orn-Ser(Bzl)-D-Phe-Arg-Trp-Glu)-OH] (Ac-R[Orn]S(Bn)[dF]RWE-OH; lactam 2-7)	–	–
76	12	–	CC(=O)N[C@@H](CCCNC(=N)N)C(=O)N[C@H]1CCC(=O)NCCC[C@@H](C(=O)O)NC(=O)[C@H](Cc2c[nH]c3ccccc23)NC(=O)[C@H](CCCNC(=N)N)NC(=O)[C@@H](Cc2ccccc2)NC(=O)[C@H](CC(N)=O)NC1=O [No. 20, Ac-Arg-cyclo(Glu-Asn-D-Phe-Arg-Trp-Orn)-OH]	–	–
92	4	–	CC(=O)N[C@@H](CCCNC(=N)N)C(=O)N[C@H]1CCC(=O)NCCC[C@@H](C(=O)O)NC(=O)[C@H](Cc2c[nH]c3ccccc23)NC(=O)[C@H](CCCNC(=N)N)NC(=O)[C@@H](Cc2ccccc2)NC(=O)[C@H](CCCN)NC1=O [No. 7, Ac-Arg-cyclo(GIu-Orn-D-Phe-Arg-Trp-Orn)-OH]	–	–
89	–	–	CC(=O)N[C@H](CCCNC(=N)N)C(=O)N[C@H]1CC(=O)NCCCC[C@@H](C(N)=O)NC(=O)[C@H](Cc2c[nH]c3ccccc23)NC(=O)[C@H](CCCNC(=N)N)NC(=O)[C@@H](Cc2ccccc2)NC(=O)[C@H](Cc2c[nH]cn2)NC1=O [reference compound]	–	–
91	4	–	CC(=O)N[C@@H](CCCNC(=N)N)C(=O)N[C@H]1CC(=O)NCCCC[C@@H](C(=O)O)NC(=O)[C@H](Cc2c[nH]c3ccccc23)NC(=O)[C@H](CCCNC(=N)N)NC(=O)[C@@H](Cc2ccccc2)NC(=O)[C@H](Cc2c[nH]cn2)NC1=O [reference compound]	–	–
83	0.7	–	CC(=O)N[C@@H](CCCNC(=N)N)C(=O)N[C@H]1CCC(=O)NCCC[C@@H](C(=O)O)NC(=O)[C@H](Cc2c[nH]c3ccccc23)NC(=O)[C@H](CCCNC(=N)N)NC(=O)[C@@H](Cc2ccccc2)NC(=O)[C@H](Cc2c[nH]cn2)NC1=O [No. 3, Ac-Arg-cyclo(Glu-His-D-Phe-Arg-Trp-Orn)-OH] (Ac-REH[dF]RW[Orn]-OH; lactam 2-7)	–	–
103	0.2	–	CC(=O)N[C@H](CCCNC(=N)N)C(=O)N[C@H]1CCCNC(=O)CC[C@@H](C(N)=O)NC(=O)[C@H](Cc2c[nH]c3ccccc23)NC(=O)[C@H](CCCNC(=N)N)NC(=O)[C@@H](Cc2ccccc2)NC(=O)[C@H](Cc2c[nH]cn2)NC1=O [No. 39, Ac-D-Arg-cyclo(Orn-His-D-Phe-Arg-Trp-Glu)-NH2]	–	–

More lines, now with the values behind:

SMILES	Emax (human MC4-R [2]; [3]) [%]	EC50 (human MC4-R [2]; [4]) [nM]	Ki (human MC4-R [1]; [5]) [nM]	Ki (human MC4-R [1]) [nM]	EC50 (human MC4-R [2]) [nM]
CC(=O)N[C@@H](CCCCN)C(=O)N[C@H]1CCCNC(=O)CC[C@@H](C(N)=O)NC(=O)[C@H](Cc2c[nH]c3ccccc23)NC(=O)[C@H](CCCNC(=N)N)NC(=O)[C@@H](Cc2ccccc2)NC(=O)[C@H](Cc2c[nH]cn2)NC1=O [No. 40, Ac-Lys-cyclo(Orn-His-D-Phe-Arg-Trp-Glu)-NH2] (Ac-K[Orn]H[dF]RWE-NH2; lactam 2-7)	114	0.2	–	3	–
CC(=O)N[C@@H](CCCNC(=N)N)C(=O)N[C@H]1CC(=O)NCCCC[C@@H](C(N)=O)NC(=O)[C@H](Cc2c[nH]c3ccccc23)NC(=O)[C@H](CCCNC(=N)N)NC(=O)[C@@H](Cc2ccccc2)NC(=O)[C@H](CC(N)=O)NC1=O [reference compound] (Ac-RDN[dF]RWK-NH2; lactam 2-7)	91	42	–	32	–
CC(=O)N[C@@H](CCCNC(=N)N)C(=O)N[C@H]1CC(=O)NCCCC[C@@H](C(N)=O)NC(=O)[C@H](Cc2c[nH]c3ccccc23)NC(=O)[C@H](CCCNC(=N)N)NC(=O)[C@@H](Cc2ccccc2)NC(=O)[C@H](C)NC1=O [reference compound] (Ac-RDA[dF]RWK-NH2; lactam 2-7)	74	37	19	–	–
CC(=O)N[C@@H](CCCNC(=N)N)C(=O)N[C@H]1CC(=O)NCCCC[C@@H](C(=O)O)NC(=O)[C@H](Cc2c[nH]c3ccccc23)NC(=O)[C@H](CCCNC(=N)N)NC(=O)[C@@H](Cc2ccccc2)NC(=O)[C@H](CCC(N)=O)NC1=O [reference compound]	80	19	–	–	–
CC(=O)N[C@H]1CC(=O)NCCCC[C@@H](C(N)=O)NC(=O)[C@H](Cc2c[nH]c3ccccc23)NC(=O)[C@H](CCCNC(=N)N)NC(=O)[C@@H](Cc2ccccc2)NC(=O)[C@H](CCC(N)=O)NC1=O [reference compound] (Ac-DQ[dF]RWK-NH2; lactam 1-6)	35	–	–	–	–
CC(=O)N[C@@H](CCCNC(=N)N)C(=O)N[C@H]1CC(=O)NCCCC[C@@H](C(N)=O)NC(=O)[C@H](Cc2c[nH]c3ccccc23)NC(=O)[C@H](CCCNC(=N)N)NC(=O)[C@@H](Cc2ccccc2)NC(=O)[C@H](CCC(N)=O)NC1=O [reference compound]	85	–	–	–	17
CC(=O)NCC[C@@H]1NC(=O)[C@@H](NC(=O)[C@H](CCCNC(=N)N)NC(C)=O)CCC(=O)NCCC[C@@H](C(N)=O)NC(=O)[C@H](Cc2c[nH]c3ccccc23)NC(=O)[C@H](CCCNC(=N)N)NC(=O)[C@@H](Cc2ccccc2)NC1=O [No. 18, Ac-Arg-cyclo(Glu-Dab(Acetyl)-D-Phe-Arg-Trp-Orn)-NH2]	75	–	–	–	–
CC(=O)N[C@@H](CCCNC(=N)N)C(=O)N[C@H]1CC(=O)NCCCC[C@@H](C(N)=O)NC(=O)[C@H](Cc2c[nH]c3ccccc23)NC(=O)[C@H](CCCNC(=N)N)NC(=O)[C@@H](Cc2ccccc2)NC(=O)[C@H](CCN)NC1=O [reference compound]	91	–	–	–	–
CC(=O)N[C@@H](CCCNC(=N)N)C(=O)N[C@H]1CCC(=O)NCCC[C@@H](C(N)=O)NC(=O)[C@H](Cc2c[nH]c3ccccc23)NC(=O)[C@H](CCCNC(=N)N)NC(=O)[C@@H](Cc2ccccc2)NC(=O)[C@H](CCCCN)NC1=O [No. 16, Ac-Arg-cyclo(Glu-Lys-D-Phe-Arg-Trp-Orn)-NH2] (Ac-REK[dF]RW[Orn]-NH2; lactam 2-7)	104	2	–	–	–
